The target of the assay is T1, human PAD4 (Homo sapiens, UniProt Q9UM07).
T1 construct: human PAD4 (NM_012387), A2-P663, was PCR amplified; His-SUMO (N, cleaved yes); made in house; host or cells: E. coli BL21(DE3)
As to the kind of experiment: In vitro PAD4 BAEE biochemical assay. As to conditions: BAEE substrate 3 mM, 5 nM PAD4, 2 mM calcium chloride; geometric mean of multiple experiments. The method, boiled down: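 Recombinant PAD4 (5 nM final) with 2 mM CaCl2 was preincubated with compound for 30 min at 25 °C in MOPS pH 7.6 buffer with DTT, then reacted with 3 mM BAEE for 2 h at 25 °C. Released ammonia was detected fluorimetrically with o-phthalaldehyde/DTT; IC50 from four-parameter fit, geometric mean of experiments.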

T1 sequence (Q9UM07 2-663): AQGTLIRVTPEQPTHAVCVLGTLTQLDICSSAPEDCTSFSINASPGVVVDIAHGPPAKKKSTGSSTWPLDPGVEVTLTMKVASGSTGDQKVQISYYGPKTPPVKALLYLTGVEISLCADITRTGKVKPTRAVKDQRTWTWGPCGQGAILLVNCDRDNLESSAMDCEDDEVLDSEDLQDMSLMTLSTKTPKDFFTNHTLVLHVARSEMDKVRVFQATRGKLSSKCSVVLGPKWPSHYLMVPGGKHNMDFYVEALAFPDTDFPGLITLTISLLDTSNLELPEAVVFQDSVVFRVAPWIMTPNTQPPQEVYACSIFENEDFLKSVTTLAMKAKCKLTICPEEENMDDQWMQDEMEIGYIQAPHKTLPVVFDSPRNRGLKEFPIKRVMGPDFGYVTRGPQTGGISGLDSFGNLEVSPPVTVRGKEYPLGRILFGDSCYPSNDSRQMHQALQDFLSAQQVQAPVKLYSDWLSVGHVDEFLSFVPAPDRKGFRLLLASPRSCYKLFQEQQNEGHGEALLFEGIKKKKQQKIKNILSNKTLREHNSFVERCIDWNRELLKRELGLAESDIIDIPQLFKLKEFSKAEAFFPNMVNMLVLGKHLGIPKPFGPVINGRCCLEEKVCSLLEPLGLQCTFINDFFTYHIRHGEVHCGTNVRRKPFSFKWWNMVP

Broadly, the IC50 is the concentration at which inhibition is half-maximal. Consider `COc1cc(C(=O)N2CCC[C@@H](N)[C@H]2C)cc2nc(-c3cc4ccc5nc4n3CCCCCc3ccnc(C4CC4)c3C(=O)N[C@@H]5C)n(C)c12` [Example 664, (2~{R})-17-[5-[(2~{R},3~ {R})-3-amino-2-methyl-piperidine-1-carbonyl]-7-methoxy-1-methyl-benzimidazol-2-yl]-6-cyclopropyl-2-methyl-3,7,16,22-tetrazatetracyclo[14.5.2.0^ {5,10}.0^{19,23}] tricosa-1(22),5,7,9,17,19(23), 20-heptaen-4-one], for which the IC50 amounted to 51 nM.

As for `COc1cc(C(=O)N2CC[C@H]3CCCN[C@H]3C2)cc2nc(-c3cc4ccc5nc4n3CCCCCCC3(CC3)C(=O)N[C@@H]5C)n(C)c12` [Example 260, (11~{R})-17-[5-[(4~{a}~{R},8~{a}~{R})-2,3,4,4~{a},5,6,8,8~{a}-octahydro-1~{H}-1,7-naphthyridine-7-carbonyl]-7-methoxy-1-methyl-benzimidazol-2-yl]-11-methyl-spiro[1,10,19-triazatricyclo[10.5.2.0^{15,18}]nonadeca-12(19),13,15(18),16-tetraene-8,1′-cyclopropane]-9-one], the IC50 stood at 453 nM.

In the case of `COCCn1c(-c2cc3ccc4nc3n2CCCCCCC(C)(C)C(=O)N[C@@H]4C)nc2cc(C(=O)N[C@H]3CNCC[C@@H]3F)c(F)c(F)c21` [Example 558, 6,7-difluoro-~{N}-[(3~{S},4~{S})-4-fluoro-3-piperidyl]-1-(2-methoxyethyl)-2-[(11~{R})-8,8,11-trimethyl-9-oxo-1,10,19-triazatricyclo [10.5.2.0^{15,18}]nonadeca-12(19),13,15(18),16-tetraen-17-yl]benzimidazole-5-carboxamide], the concentration for half-maximal inhibition (IC50) was determined as 80 nM.

Consider `C[C@H]1NC(=O)[C@@H]2C[C@@H]2CCCCCn2c(-c3nc4cc(C(=O)N[C@H]5CNCC[C@@H]5F)c(F)cc4n3C)cc3ccc1nc32` [Example 522, 6-fluoro-~{N}-[(3~ {S},4~{S})-4-fluoro-3-piperidyl]-1-methyl-2-[(2~{R},5~{R},7~{S})-2-methyl-4-oxo-3,13,19-triazatetracyclo[11.5.2.0^ {5,7).0^{16,20}]icosa-1(19),14,16(20), 17-tetraen-14-yl] benzimidazole-5-carboxamide], for which the IC50 stood at 40 nM.

As for `COc1cc(C(=O)N2CC[C@@H](OC)[C@@H](N)C2)cc2nc(-c3cc4ccc5nc4n3CCCCCc3nn(C)nc3C(=O)N[C@@H]5C)n(C)c12` [Example 570, (2~{R})-16-[5-[(3~{S}, 4~{R})-3-amino-4-methoxy-piperidine-1-carbonyl]-7-methoxy-1-methyl-benzimidazol-2-yl]-2,7-dimethyl-3,6,7,8,15,21-hexazatetracyclo[13.5.2.0^ {5,9}.0^{18,22}] docosa-1(21),5,8,16,18(22), 19-hexaen-4-one], the IC50 came to 94 nM.

For the molecule `COc1cc(C(=O)N2CCC[C@@H](N)C2)cc2nc(-c3cc4ccc5cc4n3CCCCCC[C@@H]3CCN(C3=O)[C@@H]5C)n(C)c12` [Example 113, (2~{R},6~{R})-14-[5-[(3~{R})-3-aminopiperidine-1-carbonyl]-7-methoxy-1-methyl-benzimidazol-2-yl]-2-methyl-3,13-diazatetracyclo[11.5.2.1^{3,6}.0^{16,20}] henicosa-1(19),14,16(20),17-tetraen-21-one], the half-inhibitory concentration (IC50) was determined as 302 nM.

As to `C[C@H]1NC(=O)C(C)(C)CCCCCCn2c(-c3nc4cc(C(=O)N[C@H]5CNCC[C@@H]5F)c(F)cc4n3C(F)F)cc3ccc1nc32` [Example 626, 1-(difluoromethyl)-6-fluoro-˜{N}-[(3˜{S},4˜{S})-4-fluoro-3-piperidyl]-2-[(11˜{R})-8,8,11-trimethyl-9-oxo-1,10,19-triazatricyclo[10.5.2.0^{15,18}]nonadeca-12(19),13,15(18),16-tetraen-17-yl]benzimidazole-5-carboxamide], the IC50 was 48 nM.

As for `COc1cc(C(=O)N2CC[C@H]3CCN[C@H]3C2)cc2nc(-c3cc4ccc5nc4n3CCCCC[C@@H]3C[C@H]3C(=O)N[C@@H]5C)n(C)c12` [Example 531, (2~{R},5~{R},7~{R})-14-[5-[(3~{a}-{R},7~ {a}~{R})-1,2,3,3~ {a},4,5,7,7~{a}-octahydropyrrolo[2,3-c]pyridine-6-carbonyl]-7-methoxy-1-methyl-benzimidazol-2-yl]-2-methyl-3,13,19-triazatetracyclo[11.5.2.0^ {5,7}.0^{16,20}]icosa-1(19),14,16(20),17-tetraen-4-one], the IC50 stood at 36 nM.

With `COc1cc(C(=O)N2[C@H]3CC[C@@H]2[C@H](N)C3)cc2nc(-c3cc4ccc5nc4n3CCCCCCCC(=O)N3C[C@@H]4C[C@@H]4[C@H]53)n(C)c12` [Example 135, (2~{R),3~{S},5~{R})-17-[5-[(1~{R},2~{R},4~{S})-2-amino-7-azabicyclo[2.2.1]heptane-7-carbonyl]-7-methoxy-1-methyl-benzimidazol-2-yl]-7,16,22-triazapentacyclo [14.5.2.0^{2,7}.0^{3,5}.0^{19,23}] tricosa-1(22),17,19(23),20-tetraen-8-one], the concentration for half-maximal inhibition (IC50) is 37 nM.

Turning to `COc1cc(C(=O)N[C@H]2CNCC[C@@H]2F)cc2nc(-c3cc4ccc5nc4n3C[C@@H]3[C@@H](CCCC(C)(C)C(=O)N[C@@H]5C)C3(F)F)n(C)c12` (single isomer, unassigned) [Example 365, 2-[(3˜{S},5˜{R},12˜{R})-4,4-difluoro-9,9,12-trimethyl-10-oxo-1,11,20-triazatetracyclo[11.5.2.0^{3,5}.0^{16,19}]icosa-13(20),14,16(19),17-tetraen-18-yl]-˜{N}-[(3˜{S},4˜{S})-4-fluoro-3-piperidyl]-7-methoxy-1-methyl-benzimidazole-5-carboxamide], the IC50 is 119 nM.

Take `C[C@H]1NC(=O)[C@@H]2C[C@H]2CCCC(F)(F)Cn2c(-c3nc4cc(C(=O)N5C[C@H](N)[C@@H]6CC[C@H]5C6)cc(F)c4n3[C@H]3C[C@H]3F)cc3ccc1nc32` [Example 468, (2~{R},5~{R},7~{R})-14-[5-[(1~{S},4~{R},5~{R})-4-amino-2-azabicyclo[3.2.1]octane-2-carbonyl]-7-fluoro-1-[(1~{S},2~{R})-2-fluorocyclopropyl]benzimidazol-2-yl]-11,11-difluoro-2-methyl-3,13,19-triazatetracyclo[11.5.2.0^{5,7}.0^{16,20}] icosa-1(19),14,16(20),17-tetraen-4-one]: the IC50 came to 28 nM.

Turning to `COc1cc(C(=O)N2C[C@H]3C[C@@H]2[C@@H]3N)cc2nc(-c3cc4ccc5nc4n3CCCCCCC(C)(C)C(=O)N[C@@H]5C)n(C)c12` [Example 667, (11~{R})-17-[5-[(1~{R},4~ {R},5~{R})-5-amino-2-azabicyclo[2.1.1]hexane-2-carbonyl]-7-methoxy-1-methyl-benzimidazol-2-yl]-8,8,11-trimethyl-1,10,19-triazatricyclo[10.5.2.0^ {15,18}]nonadeca-12(19), 13,15(18),16-tetraen-9-one], the IC50 stood at 70 nM.

With `COc1cc(C(=O)N2CC[C@@H](OC(F)F)[C@@H](N)C2)cc2nc(-c3cc4ccc5nc4n3CCCCCC[C@](C)(C(F)(F)F)C(=O)N[C@@H]5C)n(C)c12` [Example 725, (8~{S},11~{R})-17-[5-[(3~ {S},4~{R})-3-amino-4-(difluoromethoxy)piperidine-1-carbonyl]-7-methoxy-1-methyl-benzimidazol-2-yl]-8,11-dimethyl-8-(trifluoromethyl)-1,10,19-triazatricyclo[10.5.2.0^ {15,18}]nonadeca-12(19),13,15(18),16-tetraen-9-one], the IC50 was found to be 136 nM.

Consider `C[C@H]1NC(=O)[C@@H]2C[C@H]2CCCC(F)(F)Cn2c(-c3nc4cc(C(=O)N5C[C@H](N)[C@@H]6CC[C@H]5C6)cc(F)c4n3CC(F)F)cc3ccc1nc32` [Example 922, (2~{R},5~{R},7~{R})-14-[5-[(1~{S},4~{R},5~{R})-4-amino-2-azabicyclo[3.2.1]octane-2-carbonyl]-1-(2,2-difluoroethyl)-7-fluoro-benzimidazol-2-yl]-11,11-difluoro-2-methyl-3,13,19-triazatetracyclo [11.5.2.0^{5,7}.0^{16,20}] icosa-1(19),14,16(20),17-tetraen-4-one], for which the IC50 is 35 nM.

In the case of `COc1cc(C(=O)N2[C@H]3CC[C@@H]2[C@H](N)C3)cc2nc(-c3cc4ccc5nc4n3CCC/C=C/c3ccccc3C(=O)N[C@@H]5C)n(C)c12` [Example 24, (2~{R},11~{E})-17-[5-[(1~{R},2~{R},4~{S})-2-amino-7-azabicyclo[2.2.1]heptane-7-carbonyl]-7-methoxy-1-methyl-benzimidazol-2-yl]-2-methyl-3,16,22-triazatetracyclo[14.5.2.0^{5,10}.0^{19,23}] tricosa-1(22),5,7,9,11,17,19(23),20-octaen-4-one], the IC50 came to 56 nM.

As to `CO[C@@H]1CCN(C(=O)c2cc(F)c3c(c2)nc(-c2cc4ccc5nc4n2CCCCCc2nc(Cl)ccc2C(=O)N[C@@H]5C)n3C2CC2)C[C@@H]1N` [Example 789, (2~{R})-17-[5-[(3~{S},4~{R})-3-amino-4-methoxy-piperidine-1-carbonyl]-1-cyclopropyl-7-fluoro-benzimidazol-2-yl]-8-chloro-2-methyl-3,9,16,22-tetrazatetracyclo[14.5.2.0^ {5,10}.0^{19,23}]tricosa-1(21),5(10),6,8,17,19,22-heptaen-4-one], the IC50 was determined as 22 nM.

As to `COc1cc(C(=O)N2CCC[C@@H](N)C2)cc2nc(-c3cc4ccc5nc4n3C[C@H]3C[C@H]3COCCC(=O)N[C@@H]5C)n(C)c12` [Example 304, (3~{S),5~{R},12~{R})-18-[5-[(3~{R})-3-aminopiperidine-1-carbonyl]-7-methoxy-1-methyl-benzimidazol-2-yl]-12-methyl-7-oxa-1,11,20-triazatetracyclo[11.5.2.0^{3,5}.0^{16,19}] icosa-13(20),14,16(19),17-tetraen-10-one], the IC50 is 70 nM.

These data come from patent US11976083B2, “Inhibitors of peptidylarginine deiminases” (Gilead Sciences, Inc., priority 2020, dated 2024).
